Drawing on PubChem BioAssay (NCI), this text covers GI50 and TGI for ten compounds.

Common to all, as to assay: inhibition of tumour cell growth, NCI panel, 48 h
Experiment [1] deals with SR leukemia.
Experiment [2] concerns U251 CNS.
The subject of experiment [3] is NCI-H226 lung.
The test system of experiment [4] is UO-31 renal.
For experiment [5], the system named is K-562 leukemia.
For experiment [6], the system named is HOP-92 NSCLC.
The subject of experiment [7] is UACC-62 melanoma.
Experiment [8] has as its system 786-0 renal.
The test system of experiment [9] is HCT-15 colon.
In experiment [10] the test system is SNB-75 CNS.

Several values for one entry are separate records, joined by “and”; a condition that tells them apart may be missing. Equal values may be shown once.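 Values below derive from 48-hour exposures of cells grown in 96-well plates, with endpoints linearly interpolated between the two concentrations bracketing the appropriate inhibition level. Here, GI50 denotes the concentration required for 50% inhibition of growth. At the TGI there is no net growth.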

On to `CN(C)c1ccc2nc3ccc(=[N+](C)C)cc-3sc2c1`, for which the GI50 in experiment [1] is 1.03 µM and 1.45 µM; in [2], 0.248 µM and 0.341 µM; in experiment [3], 1.82 µM and 12.7 µM; in [4], 3.65 µM and 6.28 µM; in experiment [5], 0.469 µM and 0.509 µM; in [6], 2.59 µM and 1.74 µM. For the same compound, the GI50 in experiment [7] is 0.808 µM and 2.64 µM; in experiment [8], 2.68 µM and 2.92 µM; in [9], 0.446 µM and 0.795 µM; in experiment [10] it was 1.79 µM and 2.92 µM. Moreover, the TGI in experiment [1] is 57.7 µM and 46.2 µM; in [2], 2.23 µM and 11.2 µM; in [3], 16.6 µM and 36.6 µM; in experiment [4] it was 19.8 µM and 29.1 µM; in [5] it was 18.7 µM and 48.5 µM; in experiment [6], 24.8 µM and 11.1 µM. For the same compound, the TGI was 2.61 µM and 15.2 µM in experiment [7]; 17.6 µM and 27.1 µM in [8]; 18.2 µM and > 100 µM in experiment [9]; 10.1 µM and 17.3 µM in [10].
`CC(C)(O)CC(=O)NCCn1ccc2ncnc(Nc3ccc(Oc4cccc(C(F)(F)F)c4)c(Cl)c3)c21`: the GI50 in experiment [1] is 2.14 µM; in experiment [2], 3.45 µM; in experiment [3], 3.19 µM; in [4], 1.12 µM; in experiment [5], 4.54 µM; in experiment [6] it was 1.63 µM. Moreover, the GI50 in experiment [7] was 2.96 µM; in [8], 4.01 µM; in experiment [9], 2.5 µM; in experiment [10], 4.72 µM. In addition, the TGI in experiment [1], in experiment [2], in [3], in experiment [4], in experiment [5] and in [6] was greater than 10 µM throughout. Also, the TGI in experiment [7], in experiment [8], in [9] and in [10] was greater than 10 µM in each case.
For `O=C1c2c(O)cccc2C(C2OC(CO)C(O)C(O)C2O)c2cc(CO)cc(O)c21` (stereo not given), in experiment [1], the GI50 is greater than 100 µM. Moreover, the TGI in [1], in [2], in experiment [3], in [4], in [5] and in [6] was greater than 100 µM throughout. In addition, the TGI in [7], in [8], in experiment [9] and in experiment [10] was greater than 100 µM each time.
Regarding `COc1ccc(OC)c(NC(=O)CCC/C(CC(=O)c2ccc(O)c(OC)c2)=N\Nc2ccc([N+](=O)[O-])cc2)c1`, the TGI is greater than 100 µM in experiment [1]; greater than 100 µM in [2]; greater than 100 µM in [3]; greater than 100 µM in [4]; greater than 100 µM in experiment [5]; 85.6 µM in [6]. In addition, the TGI in experiment [7] was greater than 100 µM; in experiment [8], greater than 100 µM; in [9], greater than 100 µM; in experiment [10], 79 µM.
On to `CN(C(=O)c1ccco1)C(=S)N1CCN(c2ccccc2)CC1`, for which the TGI in experiment [1], in experiment [2], in [3], in experiment [4], in experiment [5] and in experiment [6] was greater than 100 µM throughout. For the same compound, the TGI in experiment [7], in [8], in [9] and in [10] was greater than 100 µM in each case.
`CCOC(=O)C(=Cc1cccnc1C)C(=O)OCC`: the TGI in experiment [1] came out at 26.2 µM; in [2], 18.6 µM; in [3] it was 53.3 µM; in experiment [4], 17.6 µM; in experiment [5], 17.3 µM; in experiment [6], 24.5 µM. The TGI in [7] worked out at 20.1 µM; in [8] it was 20.8 µM; in experiment [9], 19.4 µM; in [10], 11.8 µM.
As to `COc1ccc(OC)c(-c2c(C#N)c(N)nc(N3CCOCC3)c2C#N)c1`, the GI50 was 36.3 µM in experiment [1]; greater than 100 µM in experiment [2]; 85.6 µM in [3]; 46 µM in experiment [4]; greater than 100 µM in experiment [5]; 82.5 µM in [6]. Moreover, the GI50 in experiment [7] was 44.5 µM; in [8], greater than 100 µM; in experiment [9], greater than 100 µM; in experiment [10] it was 12.9 µM. Further, the TGI in experiment [1], in experiment [2], in [3], in [4], in [5] and in experiment [6] was greater than 100 µM in each case. For the same compound, the TGI is greater than 100 µM in [7], greater than 100 µM in [8], greater than 100 µM in experiment [9] and 57.4 µM in [10].
In the case of `Cc1cccc(C(C)C)c1NC(=O)CC1C(=O)Nc2ccccc2S1(=O)=O` (stereo not given), the TGI in [1] was 4.32 µM; in experiment [2], greater than 51.4 µM; in [3] it was 49.9 µM; in experiment [4], 84.4 µM; in experiment [5], 10.3 µM; in experiment [6] it was 30.7 µM. Further, the TGI is greater than 51.1 µM in experiment [7], 39.5 µM in experiment [8], 19.5 µM in [9] and greater than 69 µM in experiment [10].
In the case of `O=C1CC(S(=O)(=O)O)C=C1Nc1cccc(Cl)c1` (stereo not given), the TGI in [1], in [2], in experiment [3], in experiment [4], in experiment [5] and in [6] was greater than 100 µM each time. The TGI in [7], in [8] and in experiment [10] was greater than 100 µM each time.
For the compound `CN(C)c1ccc2c(c1)OC(N)=C(C#N)C2c1ccc2c(c1)CCO2` (stereo not given), the GI50 in [1] was less than 0.0198 µM; in experiment [2], 0.198 µM; in experiment [3], 2.38 µM; in experiment [4], 0.362 µM; in experiment [5], less than 0.023 µM; in experiment [6] it was 5.69 µM. Moreover, the GI50 in experiment [7] was less than 0.0205 µM; in [8], 0.0502 µM; in experiment [9], less than 0.0262 µM; in experiment [10], 0.0812 µM. The TGI in experiment [1] is greater than 48.2 µM; in experiment [2] it was 29.8 µM; in experiment [3], greater than 62.4 µM; in experiment [4], 35.4 µM; in experiment [5], greater than 100 µM; in experiment [6] it was 74.3 µM. The TGI in experiment [7] was 21.9 µM; in experiment [8], 25.1 µM; in experiment [9], greater than 100 µM; in experiment [10], greater than 49.4 µM.
